Data on 17 molecules can be found in patent US8440701B2, “Trisubstituted 1,2,4 triazoles” (Janssen Pharmaceutica NV, priority 2007, dated 2013).

Where a name gives a salt, the structure may show the parent alone.

Data set [1] addresses T1, hα7-wt nAChR (Homo sapiens, UniProt P36544).
T1 construct: expressed in transfected cells; host or cells: GH4C1 cells (recombinant, stably over-expressing)
The data set can be described thus: Ca2+ flux imaging (FDSS), potentiation of choline response. It is filed as cell-based. The following applies: for EC50: hα7-wt nAChR-expressing GH4C1 cells, potentiation of 100 μM choline, compounds 0.01 μM to 30 μM. The method, then:
Ca^2+ Flux Imaging (FDSS)
• Hanks buffered saline solution (HBSS, Invitrogen, Belgium), supplemented with 10 mM HEPES (Invitrogen, Belgium), CaCl2 to a final concentration of 5 mM, 0.1% Bovine serum albumin (Sigma-Aldrich NV, Belgium). b) Calcium-Sensitive Dye—Fluo-4AM • Fluo-4AM (Molecular Probes, USA) was dissolved in DMSO containing 10% Pluronic acid (Molecular Probes, USA) to give a stock solution which was diluted in assay buffer supplemented with 5 mM probenicid (Sigma, Aldrich NV, Belgium) to give a final concentration of 2 μM. c) 384-Well Plates • Black 384 well plate black/clear plates, PDL pre-coated (Corning, Incorporated, USA) d) Calcium Flux Measurement • A Functional drug screening system (FDSS, Hamamatsu) was used to measure intracellular free-calcium flux signals. Method
Monolayers of hα7-wt nAChR-expressing GH4C1 cells were grown in multi-well plates, in particular black-sided, transparent bottomed 384 well plates coated with poly-D-lysine for 24 hours prior to loading with a fluorescent calcium indicator, in a particular embodiment loading with fluo-4AM for up to 120 minutes.
PAM activity was detected in real time by applying the compound to be tested to the loaded cells along with a α7 nicotinic receptor agonist during constant monitoring of the cellular calcium mobilization by fluorescence in a FDSS. Compounds giving peak fluorescent responses greater than the response due to agonist alone, were considered to be α7 nAChR PAM's. In a particular embodiment, the α7 nicotinic receptor agonist was choline, a more particular embodiment choline applied at a sub-maximal concentration of 100 μM. In a further setting of the present invention the compounds to be tested were applied prior to the α7 nicotinic receptor agonist, in a particular embodiment up to 10 minutes prior to the agonist.
A control response to choline was calculated on each plate from the difference in peak in fluorescence in wells receiving either choline or assay buffer alone. Compounds of the present invention were tested at a concentration range from 0.01 μM to 30 μM. Compounds were considered to have an interesting activity when they potentiated the choline signal at least with 200% when tested at a concentration of 30 μM (the efficacy of 100 μM choline was defined as 100% in the absence of a PAM).
EC50 values (potency), maximal effect (% efficacy), and Hill slopes were estimated by fitting the sigmoidal equation to the data using GraphPad Prism (GraphPad Software, Inc., San Diego, Calif.). An EC50 (or pEC50) was determined as a concentration relating to half the maximal effect, when a clear sigmoidal curve with top plateau was obtained.

For data set [2], the target named is T1, hα7-wt nAChR. Kind of data set: Whole-cell voltage-clamp recording, PAM type classification. It is filed as cell-based. Further details: key: Type 1 compounds enhance the effect size of the current elicited by 1 mM choline but minimally alter the kinetics of the receptor.; Type 2 compounds enhance the effect size of the current elicited by 1 mM choline while reducing the rate and/or the extent of desensitization.; Type 3 compounds enhance the effect size of the current elicited by 1 mM choline. When tested at higher concentrations up to 10 μM they completely inhibit desensitization, in particular a 1 mM choline application of 250 milliseconds.; Type 4 compounds allow for an initial desensitization of the receptor followed by a re-opening of the receptor during agonist application. The conditions noted are these: qualitative kinetic properties; 1 mM choline; hα7-wt nAChR-expressing GH4C1 cells. How it is done: The compounds of the present invention are classified as type 1-4, based on qualitative kinetic properties, as determined by whole-cell voltage-clamp recordings. This classification is based on the effect of an α7 PAM compound, as described hereinbefore, on the signal elicited by an agonist application. In particular, said agonist is choline at a concentration of 1 mM. In a preferred experimental setting, said α7 PAM compound and choline are simultaneously applied to the cell, as described hereinafter. Desensitization is defined as the closure of the receptor upon activation during the application of the agonist in whole-cell voltage-clamp electrophysiology measurements seen as the reduction of the […] current after initial activation by the agonist.
The definition of the PAM types 1-4 is described hereinafter: • Type 1 compounds enhance the effect size of the current elicited by 1 mM choline but minimally alter the kinetics of the receptor. In particular, the rate and the extent of desensitization, elicited by the agonist, is not affected. The compound-modulated response to 1 mM choline, therefore, is a close to linear scaling of the 1 mM choline response in absence of the α7 PAM compound. • Type 2 compounds enhance the effect size of the current elicited by 1 mM choline while reducing the rate and/or the extent of desensitization. • Type 3 compounds enhance the effect size of the current elicited by 1 mM choline. […] At low-potency concentrations of the α7 PAM compound, the agonist-induced activation, which is followed by desensitization, can still be separated from the compound-induced re-opening as an initial inward current-maximum. At higher potency concentrations of the α7 PAM compound, the re-opening occurs faster than the closure due to desensitization so that the initial current-maximum disappears.
The compounds of the present invention also have a potentiating effect on the response to choline when measured by whole-cell voltage-clamp electrophysiology in GH4C1 cells stably over-expressing the human wild-type α7 receptor, as described hereinafter.
Whole-Cell Voltage-Clamp Recording
Whole-cell voltage-clamp recording from mammalian cells has provided a powerful means of assessing the function of membrane proteins thought to be subunits of ligand-gated ion channels. Activation of such proteins by endogenous or exogenous ligands causes opening of a pore associated with the receptor through which ions flow down their electrochemical gradient. In the case of the hα7-wt nAChR-expressing GH4C1 recombinant cell line the preferential permeability to calcium of this receptor means that calcium flows into the cell upon activation by ACh, choline and other nicotinic ligands giving rise to a calcium current. Since this receptor rapidly desensitizes in the presence of an agonist it is important that an application system is used which is capable of very rapid switching of solutions (<100 ms) to prevent partial or full desensitisation of receptor responses coincident with the time of agonist application. Consequently, a second convenient technique to assess the enhancement of nicotinic efficacy is whole-cell voltage-clamp recording from hα7-wt nAChR-expressing GH4C1 cells coupled with a rapid-application system.
• The external recording solution consisted of 152 mM NaCl, 5 mM KCl, 1 mM MgCl2, 1 mM Calcium, 10 mM HEPES; pH 7.3. The internal recording solution consisted of 140 mM CsCl, 10 mM HEPES, 10 mM EGTA, 1 mM MgCl2, pH 7.3. • b) Patch-clamp recording was carried out using a Patch-clamp amplifier (Multiclamp 700A, Axon Instruments, CA, USA). The membrane potential of hα7-wt nAChR-expressing GH4C1 cells was voltage-clamped in the whole cell configuration (Hamill et al, 1981) with a borosilicate glass electrode of 1.5-3 MΩ tip resistance when filled with the internal recording solution. […]

T1 sequence (P36544 23-502): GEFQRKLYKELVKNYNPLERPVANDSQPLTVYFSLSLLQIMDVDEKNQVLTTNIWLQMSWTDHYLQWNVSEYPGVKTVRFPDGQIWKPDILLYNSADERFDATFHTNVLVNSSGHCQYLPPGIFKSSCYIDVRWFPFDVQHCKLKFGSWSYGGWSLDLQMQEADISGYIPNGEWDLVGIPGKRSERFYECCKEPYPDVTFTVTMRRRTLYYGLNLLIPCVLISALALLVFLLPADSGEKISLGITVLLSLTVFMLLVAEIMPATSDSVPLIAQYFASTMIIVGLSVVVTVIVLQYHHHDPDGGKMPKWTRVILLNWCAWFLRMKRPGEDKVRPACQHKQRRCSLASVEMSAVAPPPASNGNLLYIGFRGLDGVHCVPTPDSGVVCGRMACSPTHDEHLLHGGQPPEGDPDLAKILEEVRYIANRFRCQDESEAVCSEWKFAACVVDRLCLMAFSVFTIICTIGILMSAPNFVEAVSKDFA

As a reminder, the EC50 is the concentration giving half of the maximal effect. On to `CC[C@H](O)Cn1nc(Nc2cccc(Cl)c2F)nc1-c1cc(C)nc(C)c1` [Compound E35, (S)-1-[3-(3-Chloro-2-fluoro-phenylamino)-5-(2,6-dimethyl-pyridin-4-yl)-[1,2,4]-triazol-1-yl]-butan-2-ol HCl salt], for which the concentration for a half-maximal effect (EC50) in data set [1] was 0.468 µM.
One may read the melting point as the temperature of the solid-liquid transition. As for `CCCC(O)Cn1nc(Nc2cccc(Cl)c2)nc1-c1cc(C)nc(C)c1` (single isomer, unassigned) [Compound E23], the melting point stood at 127.44 °C. In addition, the PAM_type in data set [2] was determined as 1. Besides, the concentration for a half-maximal effect (EC50) in data set [1] was 0.891 µM.
On to `CC[C@H](O)Cn1nc(Nc2ccc(F)c(F)c2F)nc1-c1cc(C)nc(C)c1.Cl` [Compound E33, (S)-1-[5-(2,6-Dimethyl-pyridin-4-yl)-3-(2,3,4-trifluoro-phenylamino)-[1,2,4]triazol-1-yl]-butan-2-ol HCl salt], for which the melting point worked out at 237.44 °C. The 50% effective concentration (EC50) in data set [1] is 0.437 µM.
As to `CC[C@H](O)Cn1nc(Nc2cc(F)cc(OC)c2)nc1-c1cc(C)nc(C)c1.Cl` [Compound E37, (S)-1-[5-(2,6-Dimethyl-pyridin-4-yl)-3-(3-fluoro-5-methoxy-phenylamino)-[1,2,4]triazol-1-yl]-butan-2-ol HCl salt], in data set [2], the PAM_type turned out to be 2. Besides, the EC50 in data set [1] is 1.58 µM.
In turn, `CCNc1cc(-c2nc(Nc3cccc(Cl)c3)nn2C[C@@H](O)CC)ccn1` [Compound E2, (S)-1-[3-(3-Chloro-phenylamino)-5-(2-ethylamino-pyridin-4-yl)-[1,2,4]triazol-1-yl]-butan-2-ol] showed a melting point of 161.99 °C. Besides, the PAM_type in data set [2] was found to be 2. In data set [1], the EC50 was 0.355 µM.
For `CCCC(O)Cn1nc(Nc2ccc(F)c(F)c2)nc1-c1ccnc(C)c1` (single isomer, unassigned) [Compound E16], in that order: 134.82 °C, 2 and 0.417 µM.
What is called Emax is the greatest response seen or fitted, relative to the assay's reference. The molecule `CCCC(O)Cn1nc(Nc2ccc(F)c(F)c2)nc1-c1cc(C)nc(C)c1` (single isomer, unassigned) [Compound E13] displayed a melting point of 141.14 °C. The PAM_type in data set [2] is 1. Further, the Emax in data set [1] (GH4-C1, maximal effect, efficacy of 100 μM choline defined as 100% in the absence of a PAM, GH4C1 cells) is 490%. In addition, the EC50 in data set [1] was 0.245 µM.
As for `CCCC(O)Cn1nc(Nc2ccc(F)c(F)c2)nc1-c1cc(C)nc(C)c1` (single isomer, unassigned) [Compound E14], the melting point came to 139.48 °C. Besides, the PAM_type in data set [2] amounted to 2. For the same molecule, the half-maximal effective concentration (EC50) in data set [1] is 0.316 µM.
Turning to `CC[C@H](O)Cn1nc(Nc2ccc(F)c(F)c2F)nc1-c1cc(C)nc(C)c1` [Compound E32, (S)-1-[5-(2,6-Dimethyl-pyridin-4-yl)-3-(2,3,4-trifluoro-phenylamino)-[1,2,4]triazol-1-yl]-butan-2-ol], the PAM_type in data set [2] came out at 2. The EC50 in data set [1] is 0.513 µM.
For `CC[C@H](O)Cn1nc(Nc2cccc(Cl)c2F)nc1-c1cc(C)nc(C)c1` [Compound E34, (S)-1-[3-(3-Chloro-2-fluoro-phenylamino)-5-(2,6-dimethyl-pyridin-4-yl)-[1,2,4]triazol-1-yl]-butan-2-ol], in that order: 2 and 0.316 µM.
For `CCC(O)Cn1nc(Nc2cccc(Cl)c2)nc1-c1cc(C)nc(C)c1` (single isomer, unassigned) [Compound E21], in that order: 2 and 0.832 µM.
`CCCCC(O)Cn1nc(Nc2ccc(F)c(F)c2)nc1-c1cc(C)nc(C)c1` (single isomer, unassigned; (-)) [Compound E4, (−)-1-[3-(3,4-Difluoro-phenylamino)-5-(2,6-dimethyl-pyridin-4-yl)-[1,2,4]triazol-1-yl]-hexan-2-ol] displayed a melting point of 134.6 °C. The EC50 in data set [1] is 0.209 µM.
In the case of `CCCC(O)Cn1nc(Nc2cccc(Cl)c2)nc1-c1cc(C)nc(C)c1` (single isomer, unassigned) [Compound E24], in data set [2], the PAM_type came to 2. In addition, the half-maximal effective concentration (EC50) in data set [1] was 0.851 µM.
As to `CC[C@H](O)Cn1nc(Nc2ccc(F)c(F)c2F)nc1-c1ccnc(C)c1` [Compound E31, (S)-1-[5-(2-Methyl-pyridin-4-yl)-3-(2,3,4-trifluoro-phenylamino)-[1,2,4]-triazol-1-yl]-butan-2-ol], the PAM_type in data set [2] was 2. Also, the EC50 in data set [1] is 0.55 µM.
With `CCCCC(O)Cn1nc(Nc2ccc(F)c(F)c2)nc1-c1ccnc(C)c1` (racemic) [Compound E3, 1-[3-(3,4-Difluoro-phenylamino)-5-(2-methyl-pyridin-4-yl)-[1,2,4]triazol-1-yl]-hexan-2-ol], the melting point came out at 137.96 °C.
As for `CC[C@H](O)Cn1nc(Nc2cc(F)cc(OC)c2)nc1-c1ccnc(C)c1` [Compound E36, (S)-1-[3-(3-Fluoro-5-methoxy-phenylamino)-5-(2-methyl-pyridin-4-yl)-[1,2,4]triazol-1-yl]butan-2-ol HCl salt], the PAM_type in data set [2] stood at 2. Besides, the EC50 in data set [1] is 2.09 µM.
`CCC(O)Cn1nc(Nc2cccc(Cl)c2)nc1-c1cc(C)nc(C)c1` (single isomer, unassigned) [Compound E18]: in data set [2], the PAM_type was determined as 1. For the same molecule, the 50% effective concentration (EC50) in data set [1] was 1.29 µM.
